Source: patent publication US9308238B2, “Compositions and methods for modulating EMT and uses thereof” (Whitehead Institute for Biomedical Research, priority 2010, dated 2016)

Key:
Type in all cases: cell-based, human
luminal MECs [1] = test: Mammosphere assay, primary luminal cells after pre-treatment; details: 5-day treatment
Excerpt: (§1) FIGS. 7A-7G. Migratory and self-renewal properties in primary MECs: inhibition and induction. (FIG. 7A) Mammosphere Assay: microscopy images of mammospheres and quantification of mammosphere formation by purified basal, luminal and unsorted MEC populations. Primary spheres were allowed to form over a period of 7 days, dissociated and seeded for secondary sphere formation, n(mammosphere)/1000 cells, n=48, (FIG. 7B) Migration Assay: microscopy images of migrated cells in Boyden Chambers and quantification, n=6. (FIG. 7C) Mammosphere Assay: basal cells were seeded into assay after a 5 day pre-treatment with TGF-beta inhibitors A83-01 and […] (SB43, both inhibitors at 10 μM) as well as recombinant SFRP1 (1 μg/ml), n(mammospheres)/1000 cells, n=6. (FIG. 7D) Migration Assay: basal cells were seeded into migration assays treated after 5 day pre-treatment as described in (C), n=24. (FIG. 7E) Mammosphere Assay: luminal cells were seeded into the assay following a 5 day pre-treatment with TGF-beta 1 (5 ng/ml), Wnt5a (250 ng/ml), anti-E-Cadherin antibody (1 μg/ml) plus anti-DKK1 antibody (10 μg/ml), and a cocktail of all factors added together (iEMT-II), n(mammospheres)/1000 cells, n=24. (FIG. 7F) Migration Assay: luminal cells were seeded into Boyden Chambers following a 5 day pre-treatment as described in (E), n=6. […]

[2] = tested on: Smad transcriptional activity; test: Smad luciferase reporter assay (SBE4-luc), HMLE^24+ cells; details: HMLE^24+ cells treated with TGF-beta (5 ng/ml, 30 min)
Excerpt: FIGS. 12A-12F. Concomitant stimulation of Wnt and TGF-beta pathways allows HMLE^24+ cells to enter into a mesenchymal and SC-like state. (FIG. 12A) RT-PCR: SFRP1, L32 was loading control, n=3; SFRP1 mRNA levels in HMLE^24+ stably expressing two hairpin-encoding vectors (shSFRP1a and -b) compared cells expressing a control hairpin targeting GFP (shGFP), HMLE^24+-shSFRP1b were used for iEMT experiments. (FIG. 12B) Flow cytometry: Expression of CD44 and CD24 cell-surface markers in HMLE, HMLE^24+-shGFP and -shSFRP1 cells. […] (FIG. 12F) Growth curves: proliferation of indicated cell lines was monitored by the MTS assay for 3 days, 8 passages after cessation of 14 day treatment as described in (D), n=12.
Luciferase assays. […] Lysates were collected 24-48 hr after transfection, and firefly and Renilla luciferase activities were measured with a Dual-Luciferase Reporter System (Promega).

luminal MECs [3] = test: Migration assay, primary luminal cells after pre-treatment; details: 5-day treatment
Excerpt: as §1

luminal MECs [4] = test: Growth curve of luminal cells in monolayers; details: luminal cultures
Experimental: FIGS. 14A-14D. Modulation of migratory and self-renewal abilities in basal and luminal MECs. (FIG. 14A) Growth curve: basal cells treated every 48 hrs with indicated factors, TGF-beta-type 1 receptor inhibitors A83-01 and SB431542 (10 μM), SFRP1 (1 μg/ml); cells were counted at indicated time points, n=2. (FIG. 14B) Growth curve: luminal cells treated every 48 hrs with indicated factors, TGF-beta 1 (5 ng/ml), Wnt5a (250 ng/ml), anti-DKK1-(10 μg/ml) and anti-E-Cadherin antibodies (1 μg/ml) or a combination of all factors (iEMT-II); cells were counted at indicated time points, n=2, (FIG. 14C) Microscopy images of basal cells treated as described in (A), at 4 days/before first passage. (FIG. 14D) Microscopy images of luminal cells treated as described in (B), at 4 days/before first passage.
(§2) Primary mammary epithelial cell culture. Single-cell suspensions of primary human mammary epithelial cells (MECs) were generated from reduction mammoplasties of pre-menopausal women as previously described (Stingl et al., 2001), Data from three donors are included in this study. Primary MECs were cultured on collagen I-coated plates (Millipore) in MEGM medium (Lonza) supplemented with 1% Fetal Bovine Serum in a humidified 4% O2, 5% CO2, atmosphere.

primary MECs = test: Proliferation of primary MECs; details: data not shown
Excerpt: We also undertook to test whether the autocrine loops operating in HTwist and MSP cells enabled basal MECs to maintain their self-renewal and migratory abilities. […] In addition, we blocked autocrine Wnt signaling through application of recombinant SFRP1. After a 5-day, daily treatment with both TGF-beta inhibitors or SFRP1 in monolayer cultures, basal cells were submitted to migration and mammosphere assays in the absence of further treatment.
as §2

basal MECs = test: Migration assay, primary basal cells after pre-treatment; details: 5 day pre-treatment
Excerpt: as §1

## TGF-beta 1: recombinant TGF-beta 1 protein, used at 5 ng/ml
Luminal MECs [1]
  increase in mammosphere-forming cells / efficiency: 3 fold
[2]
  upregulation of Smad-reporter activity: 1.5 fold
Luminal MECs [3]
  increase in motile cells: 8 fold
Luminal MECs [4]
  proliferation in monolayers: significantly reduced

B1: BMP4: Recombinant BMP4 protein obtained from Stemgent (protein, UniProt P12644 293-408, looked up)
Bone morphogenetic protein 4: SPKHHSQRARKKNKNCRRHSLYVDFSDVGWNDWIVAPPGYQAFYCHGDCPFPLADHLNSTNHAIVQTLVNSVNSSIPKACCVPTELSAISMLYLDEYDKVVLKNYQEMVVEGCGCR
Primary MECs
  effect on proliferation of primary MECs: strong anti-proliferative effect

B2: SFRP1: Recombinant human SFRP1 protein (R&D Systems), secreted decoy receptor binding canonical and non-canonical Wnt ligands (protein, UniProt Q8N474 32-314, looked up)
Secreted frizzled-related …: SEYDYVSFQSDIGPYQSGRFYTKPPQCVDIPADLRLCHNVGYKKMVLPNLLEHETMAEVKQQASSWVPLLNKNCHAGTQVFLCSLFAPVCLDRPIYPCRWLCEAVRDSCEPVMQFFGFYWPEMLKCDKFPEGDVCIAMTPPNATEASKPQGTTVCPPCDNELKSEAIIEHLCASEFALRMKIKEVKKENGDKKIVPKKKKPLKLGPIKKKDLKKLVLYLKNGADCPCHQLDNLSHHFLIMGRKVKSQYLLTAIHKWDKKNKEFKNFMKKMKNHECPTFQSVFK
Basal MECs
  reduction of motility: 3 fold
